Measurements reported in paper PMC4322620 (Frontiers in Pharmacology, 2015).
Where a SMILES comes first, the peptide text is derived from it. [ ]: non-standard residue; d: D form. The star is where a group is joined. X1 = CC(=O)N[C@@H]1[C@@H](O[C@@H]2O[C@H](CO)[C@H](O)[C@H](O)[C@H]2O)[C@@H](O)[C@@H](CO)O[C@@H]1*; X2 = CC12CC3CC(C)(C1)CC(N*)(C3)C2; pGlu = O=C1CC[C@@H](C(=O)O)N1

Key:
[1] = molecular target: neurotensin receptors (HT-29 cells) (Homo sapiens, UniProt P30989); format: cell-based
[2] = molecular target: cell-surface neurotensin receptors (HT-29 cells) (Homo sapiens, UniProt P30989); format: cell-based
cell-surface neurotensin receptors (HT-29 cells), sequence (P30989 whole entry, looked up): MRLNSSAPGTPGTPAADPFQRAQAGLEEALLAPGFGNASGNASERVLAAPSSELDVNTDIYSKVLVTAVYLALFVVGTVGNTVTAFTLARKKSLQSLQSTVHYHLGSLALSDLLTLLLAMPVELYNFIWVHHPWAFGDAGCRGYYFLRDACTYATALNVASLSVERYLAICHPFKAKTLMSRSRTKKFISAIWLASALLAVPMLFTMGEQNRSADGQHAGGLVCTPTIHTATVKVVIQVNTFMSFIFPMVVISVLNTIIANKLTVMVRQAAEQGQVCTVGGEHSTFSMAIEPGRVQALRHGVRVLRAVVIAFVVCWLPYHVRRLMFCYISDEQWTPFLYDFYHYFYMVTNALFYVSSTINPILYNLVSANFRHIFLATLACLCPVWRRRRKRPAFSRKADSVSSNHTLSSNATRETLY

in vitro [3] = conditions: rat, serum
in vitro [4] = conditions: mouse, other tissue homogenate
NTS1 (HT-29 cells) = NTS1 (HT-29 cells) (Homo sapiens, UniProt P30989); experiment: cell-based
NTS1 (HT-29 cells), sequence (P30989 whole entry, looked up): as above

motor impairment = conditions: mouse, in vivo

neurotensin receptors (HT-29 cells), sequence (P30989 whole entry, looked up): as above

SMILES | DC50 [1] [nM] | DC50/EC50 [1] | levels of cell-surface neurotensin receptors after agonist exposure [2] | half-life (in vitro [3]) [h] | half-life (in vitro [4]) [h] | EC50 (NTS1 (HT-29 cells)) [nM] | rotorod toxicity (motor impairment)
CC[C@H](C)[C@H](NC(=O)[C@H](Cc1ccc(O)cc1)NC(=O)[C@@H]1CCCN1C(=O)[C@H](CCCCN)NC(=O)[C@H](CCCCN)NC(=O)[C@@H](NC(=O)[C@H](C)NC(=O)[C@H](CC(N)=O)NC(=O)[C@H](CO)NC(=O)CNC(=O)CNC(=O)[C@H](CCC(=O)O)NC(=O)[C@H](CCC(=O)O)NC(=O)[C@H](CO)NC(=O)[C@@H]1CCC(=O)N1)[C@@H](C)O[C@H]1O[C@H](CO)[C@H](O)[C@H](O[C@@H]2O[C@H](CO)[C@H](O)[C@H](O)[C@H]2O)[C@H]1NC(C)=O)C(=O)N[C@@H](CC(C)C)C(=O)O [Contulakin-G] ([pGlu]SEEGGSNAT(X1)KKPYIL-OH) | 444 ± 41 | 14 | significantly higher levels | > 16 | > 2.67 | 32.4 ± 14.5 | –
CC[C@H](C)[C@H](NC(=O)[C@H](Cc1ccc(O)cc1)NC(=O)[C@@H]1CCCN1C(=O)[C@H](CCCCN)NC(=O)[C@H](CCCCN)NC(=O)[C@H](CCC(=O)NC12CC3CC(C)(CC(C)(C3)C1)C2)NC(=O)[C@H](CCCCN)NC(=O)[C@H](CC(N)=O)NC(=O)[C@H](CO)NC(=O)CNC(=O)CNC(=O)[C@H](CCC(=O)O)NC(=O)[C@H](CCC(=O)O)NC(=O)[C@H](CO)NC(=O)[C@@H]1CCC(=O)N1)C(=O)N[C@@H](CC(C)C)C(=O)O [memantine-Contulakin-G] ([pGlu]SEEGGSNKE(X2)KKPYIL-OH) | – | – | – | – | – | – | no rotorod toxicity
